Measurements as given in patent US20050148653A1, “Polymaleimide compounds and their medical use” (priority 2001, published 2005).
Where two headings read alike, the source gives them in different places.

Experiments:
Chlamydia trachomatis = assay: Chlamydia assay: transient treatment of Chlamydia with maleimides, infection of McCoy cells, iodine-stained inclusions counted; assay type: cell-based; conditions: for activity relative to bis maleimide equivalent: chlamydia infection of McCoy cells; for IODINE-STAINED INCLUSIONS/FIELD F1: field 1; for IODINE-STAINED INCLUSIONS/FIELD F2: field 2; for IODINE-STAINED INCLUSIONS/FIELD F3: field 3; for IODINE-STAINED INCLUSIONS/FIELD F4: field 4; for IODINE-STAINED INCLUSIONS/FIELD F5: field 5; for MEAN COUNT/FIELD (iodine-stained inclusions): mean of 5 fields; for TOTAL COUNT/FIELDS (iodine-stained inclusions): sum of 5 fields; for COMMENTS: inclusions seen on entire coverslip: re-examined under low power; for inhibition of the infection of McCoy cells with chlamydia: transient exposure of chlamydia to compound
Procedure: Purified Chlamydia trachomatis (250 μl) was added to 250 μl of each compound concentration and the mixtures incubated at room temperature for 5 minutes. The tubes were then centrifuged (15000 rpm, 15 minutes), the supernatant decanted and the pellet washed serum free MEM (with 0.5 mls). This step was repeated and the resultant pellet resuspended MEM (in 0.5 ml) and inoculated into a confluent shell vial (coverslip) cultures of McCoy cells. The cultures were centrifuged (3000 rpm, 1 hour at 37° C.) and incubated for a further 2 hours prior to being changed onto MEM with 10% foetal calf serum, I μg/rl cycloheximide, 0.5% added glucose, vancomycin, streptomycin and amphoteracin B (Fungizone). The cultures were incubated for 68 hours, fixed in methanol and stained with Lugol's iodine. 3 replicates of each positive control (with and without DMSO) were included, as well as 2 uninoculated cell controls. Each coverslip culture was examined using low power (10×) objective to ensure that inclusions were evenly distributed and 5 high power (×40) fields were selected at random from different areas of the coverslip. Iodine stained inclusions were counted. Where no inclusions were seen on high power, the culture was re-examined under low power. Table 1. Effect of Transient Treatment with maleimides on Chlamydia Infection of McCoy Cell In Vitro. Chlamydia was pre-treated with each of the indicated maleimides for 5 minutes and the compound removed by centrifugation. McCoy cells were then exposed to the compound pre-treated chlamydia for 68 hours and inclusions counted following staining of cells with Lugols iodine.

HIV (IHV-1RF) = assay: Anti-viral (virucidal) assay: plate-bound HIV treated 10 minutes, C8166 cells added, syncytium score and XTT; assay type: cell-based; conditions: for Syncytia score day 5 (quadruplicate wells) / Syncytia score day 6 (quadruplicate wells): C8166 cells; for Mean Optical Readings at 450 nm: XTT cell viability
Procedure: HIV was attached to the surface of 96-well cell culture plates using 100 μl of 50 μg/ml poly-L-lysine hydrobromide (PLL) of molecular weight >300 K for 1 h at RT. The outer wells were left uncoated and filled with 250 μl of PBS to counteract the effects of evaporation. The coated wells were washed twice with PBS and 25 μl of RPMI 1640 medium containing 5×10^3 TCID50 of IHV-1RF was added and incubated for 1 h at RT. The wells were then washed twice with PBS and 25 μl of varying concentrations of the test compounds made up with serum free medium (containing a constant 10% DMSO) were added to the wells in quadruplicate and the plates incubated at 37° C. for 10 minutes. The wells were again washed twice with PBS and 5×10^4 C8166 cells in a volume of 300 μl distributed to each well and the plates incubated for 5 and 6 days respectively. On days 5 and 6 the cells were assessed microscopically for the presence of cytopathic effect (syncytium formation) and recorded. In order to quantify the cytopathic effect, XIT which is metabolised by viable but not dead cells, was added and the absorbance read at 450 nm after […] incubation at 37° C.
An assessment of viral cytopathic effect was made microscopically on days 5 and 6, but the end point of the experiment was on day 6 when the level of virus infection (as determined by cell viability) was quantified by the use of XTT.

[1] = final conc 0.02 (M), working conc 0.04 (M)
[2] = final conc 0.4 (M), working conc 0.8 (M)
[3] = final conc 1 (M), working conc 2 (M), 5 minutes pre-treatment, McCoy cells 68 hours
[4] = final conc 1 (M), working conc 2 (M)

COCCOCCOCCOCCOc1ccc(N2C(=O)C=CC2=O)cc1 [Compound 3, PEG(5) phenyl maleimide]
activity relative to bis maleimide equivalent (Chlamydia trachomatis): less active than its PEG bis (phenyl maleimide) equivalent
IODINE-STAINED INCLUSIONS/FIELD F1 (Chlamydia trachomatis; [1]): 12 inclusions/field
IODINE-STAINED INCLUSIONS/FIELD F2 (Chlamydia trachomatis; [1]): 24 inclusions/field
IODINE-STAINED INCLUSIONS/FIELD F3 (Chlamydia trachomatis; [1]): 9 inclusions/field
IODINE-STAINED INCLUSIONS/FIELD F4 (Chlamydia trachomatis; [1]): 29 inclusions/field
IODINE-STAINED INCLUSIONS/FIELD F5 (Chlamydia trachomatis; [1]): 22 inclusions/field
MEAN COUNT/FIELD (iodine-stained inclusions) (Chlamydia trachomatis; [1]): 19 inclusions/field
TOTAL COUNT/FIELDS (iodine-stained inclusions) (Chlamydia trachomatis; [1]): 96
IODINE-STAINED INCLUSIONS/FIELD F1 (Chlamydia trachomatis; [2]): 4 inclusions/field
IODINE-STAINED INCLUSIONS/FIELD F2 (Chlamydia trachomatis; [2]): 7 inclusions/field
IODINE-STAINED INCLUSIONS/FIELD F3 (Chlamydia trachomatis; [2]): 5 inclusions/field
IODINE-STAINED INCLUSIONS/FIELD F4 (Chlamydia trachomatis; [2]): 8 inclusions/field
IODINE-STAINED INCLUSIONS/FIELD F5 (Chlamydia trachomatis; [2]): 4 inclusions/field
MEAN COUNT/FIELD (iodine-stained inclusions) (Chlamydia trachomatis; [2]): 6 inclusions/field
TOTAL COUNT/FIELDS (iodine-stained inclusions) (Chlamydia trachomatis; [2]): 28
IODINE-STAINED INCLUSIONS/FIELD F1 (Chlamydia trachomatis; [3]): 0 inclusions/field
IODINE-STAINED INCLUSIONS/FIELD F2 (Chlamydia trachomatis; [4]): 0 inclusions/field
IODINE-STAINED INCLUSIONS/FIELD F3 (Chlamydia trachomatis; [4]): 0 inclusions/field
IODINE-STAINED INCLUSIONS/FIELD F4 (Chlamydia trachomatis; [4]): 0 inclusions/field
IODINE-STAINED INCLUSIONS/FIELD F5 (Chlamydia trachomatis; [4]): 0 inclusions/field
MEAN COUNT/FIELD (iodine-stained inclusions) (Chlamydia trachomatis; [4]): 0 inclusions/field
COMMENTS: inclusions seen on entire coverslip (Chlamydia trachomatis; [4]): 15
TOTAL COUNT/FIELDS (iodine-stained inclusions) (Chlamydia trachomatis; [4]): 0
inhibition of the infection of McCoy cells with chlamydia (Chlamydia trachomatis): dose-dependent inhibition
Syncytia score day 5 (quadruplicate wells) (HIV (IHV-1RF); Conc 0.003 mM): ++++ (50-100% syncytia)
Syncytia score day 6 (quadruplicate wells) (HIV (IHV-1RF); Conc 0.003 mM, day 6): ++++ (50-100% syncytia)
Mean Optical Readings at 450 nm (HIV (IHV-1RF); Conc 0.003 mM, day 6): 0.5018
Syncytia score day 5 (quadruplicate wells) (HIV (IHV-1RF); Conc 0.01 mM): +++ (25-50% syncytia)
Syncytia score day 6 (quadruplicate wells) (HIV (IHV-1RF); Conc 0.01 mM, day 6): ++++ (50-100% syncytia)
Mean Optical Readings at 450 nm (HIV (IHV-1RF); Conc 0.01 mM, day 6): 0.5085
Syncytia score day 5 (quadruplicate wells) (HIV (IHV-1RF); Conc 0.03 mM): +++ (25-50% syncytia)
Syncytia score day 6 (quadruplicate wells) (HIV (IHV-1RF); Conc 0.03 mM, day 6): ++++ (50-100% syncytia)
Mean Optical Readings at 450 nm (HIV (IHV-1RF); Conc 0.03 mM, day 6): 0.5012
Syncytia score day 5 (quadruplicate wells) (HIV (IHV-1RF); Conc 0.1 mM): +++ (25-50% syncytia)
Syncytia score day 6 (quadruplicate wells) (HIV (IHV-1RF); Conc 0.1 mM, day 6): ++++ (50-100% syncytia)
Mean Optical Readings at 450 nm (HIV (IHV-1RF); Conc 0.1 mM, day 6): 0.5118
Syncytia score day 5 (quadruplicate wells) (HIV (IHV-1RF); Conc 0.3 mM): +++ (25-50% syncytia)
Syncytia score day 6 (quadruplicate wells) (HIV (IHV-1RF); Conc 0.3 mM, day 6): ++++ (50-100% syncytia)
Mean Optical Readings at 450 nm (HIV (IHV-1RF); Conc 0.3 mM, day 6): 0.5092
Syncytia score day 5 (quadruplicate wells) (HIV (IHV-1RF); Conc 1 mM): +++ (25-50% syncytia)
Syncytia score day 6 (quadruplicate wells) (HIV (IHV-1RF); Conc 1 mM, day 6): +++ (25-50% syncytia)
Mean Optical Readings at 450 nm (HIV (IHV-1RF); Conc 1 mM, day 6): 0.5268
IC50 (HIV (IHV-1RF); Human immunodeficiency virus 1, C8166, XTT, day 6, virus treated 10 minutes, read-out: IC50 (virucidal)): > 1 mM
virucidal activity (HIV (IHV-1RF); at concentrations up to 1.0 mM): no virucidal activity

CCN1C(=O)C=CC1=O [Compound 4, Ethyl maleimide]
activity relative to bis maleimide equivalent (Chlamydia trachomatis): less active than its bis maleimide equivalent
IODINE-STAINED INCLUSIONS/FIELD F1 (Chlamydia trachomatis; [1]): 1 inclusions/field
IODINE-STAINED INCLUSIONS/FIELD F2 (Chlamydia trachomatis; [1]): 11 inclusions/field
IODINE-STAINED INCLUSIONS/FIELD F3 (Chlamydia trachomatis; [1]): 6 inclusions/field
IODINE-STAINED INCLUSIONS/FIELD F4 (Chlamydia trachomatis; [1]): 4 inclusions/field
IODINE-STAINED INCLUSIONS/FIELD F5 (Chlamydia trachomatis; [1]): 2 inclusions/field
MEAN COUNT/FIELD (iodine-stained inclusions) (Chlamydia trachomatis; [1]): 5 inclusions/field
TOTAL COUNT/FIELDS (iodine-stained inclusions) (Chlamydia trachomatis; [1]): 24
IODINE-STAINED INCLUSIONS/FIELD F1 (Chlamydia trachomatis; [2]): 0 inclusions/field
IODINE-STAINED INCLUSIONS/FIELD F2 (Chlamydia trachomatis; [2]): 0 inclusions/field
IODINE-STAINED INCLUSIONS/FIELD F3 (Chlamydia trachomatis; [2]): 0 inclusions/field
IODINE-STAINED INCLUSIONS/FIELD F4 (Chlamydia trachomatis; [2]): 0 inclusions/field
IODINE-STAINED INCLUSIONS/FIELD F5 (Chlamydia trachomatis; [2]): 0 inclusions/field
MEAN COUNT/FIELD (iodine-stained inclusions) (Chlamydia trachomatis; [2]): 0 inclusions/field
COMMENTS: inclusions seen on entire coverslip (Chlamydia trachomatis; [2]): No
TOTAL COUNT/FIELDS (iodine-stained inclusions) (Chlamydia trachomatis; [2]): 0
IODINE-STAINED INCLUSIONS/FIELD F1 (Chlamydia trachomatis; [3]): 0 inclusions/field
IODINE-STAINED INCLUSIONS/FIELD F2 (Chlamydia trachomatis; [4]): 0 inclusions/field
IODINE-STAINED INCLUSIONS/FIELD F3 (Chlamydia trachomatis; [4]): 0 inclusions/field
IODINE-STAINED INCLUSIONS/FIELD F4 (Chlamydia trachomatis; [4]): 0 inclusions/field
IODINE-STAINED INCLUSIONS/FIELD F5 (Chlamydia trachomatis; [4]): 0 inclusions/field
MEAN COUNT/FIELD (iodine-stained inclusions) (Chlamydia trachomatis; [4]): 0 inclusions/field
COMMENTS: inclusions seen on entire coverslip (Chlamydia trachomatis; [4]): No
TOTAL COUNT/FIELDS (iodine-stained inclusions) (Chlamydia trachomatis; [4]): 0
inhibition of the infection of McCoy cells with chlamydia (Chlamydia trachomatis): dose-dependent inhibition
Syncytia score day 5 (quadruplicate wells) (HIV (IHV-1RF); Conc 0.01 mM): ++++ (50-100% syncytia)
Syncytia score day 6 (quadruplicate wells) (HIV (IHV-1RF); Conc 0.01 mM, day 6): ++++ (50-100% syncytia)
Mean Optical Readings at 450 nm (HIV (IHV-1RF); Conc 0.01 mM, day 6): 0.48
Syncytia score day 5 (quadruplicate wells) (HIV (IHV-1RF); Conc 0.03 mM): ++++ (50-100% syncytia)
Syncytia score day 6 (quadruplicate wells) (HIV (IHV-1RF); Conc 0.03 mM, day 6): ++++ (50-100% syncytia)
Mean Optical Readings at 450 nm (HIV (IHV-1RF); Conc 0.03 mM, day 6): 0.4915
Syncytia score day 5 (quadruplicate wells) (HIV (IHV-1RF); Conc 0.1 mM): ++++ (50-100% syncytia)
Syncytia score day 6 (quadruplicate wells) (HIV (IHV-1RF); Conc 0.1 mM, day 6): ++++ (50-100% syncytia)
Mean Optical Readings at 450 nm (HIV (IHV-1RF); Conc 0.1 mM, day 6): 0.5048
Syncytia score day 5 (quadruplicate wells) (HIV (IHV-1RF); Conc 0.3 mM): ++++ (50-100% syncytia)
Syncytia score day 6 (quadruplicate wells) (HIV (IHV-1RF); Conc 0.3 mM, day 6): ++++ (50-100% syncytia)
Mean Optical Readings at 450 nm (HIV (IHV-1RF); Conc 0.3 mM, day 6): 0.502
Syncytia score day 5 (quadruplicate wells) (HIV (IHV-1RF); Conc 1 mM): +++ (25-50% syncytia)
Mean Optical Readings at 450 nm (HIV (IHV-1RF); Conc 1 mM, day 6): 0.5275
Syncytia score day 5 (quadruplicate wells) (HIV (IHV-1RF); Conc 3 mM): 0
Syncytia score day 6 (quadruplicate wells) (HIV (IHV-1RF); Conc 3 mM, day 6): 0
Mean Optical Readings at 450 nm (HIV (IHV-1RF); Conc 3 mM, day 6, No Virus 1.84955, Virus Control 0.5091): 1.6305
IC50 (HIV (IHV-1RF); Human immunodeficiency virus 1, C8166, read-out: IC50 (virucidal)): 1.9 mM
